The values below come from PMC11325505, “Nitrogen-Containing Flavonoids—Preparation and Biological Activity” (ACS Omega, 2024).

For assay [1], the system named is RAW 264.7 cells. The experiment in a line: Cellular antioxidant activity (CAA). The assay is classed as cell-based, Murine. Conditions: Mus musculus, RAW264.7, macrophages RAW 264.7; average of four repetitions ± standard error of the mean. The method, then:
To evaluate the antioxidant activity of the prepared derivatives and the respective parent compounds, cellular antioxidant activity (CAA) was measured in macrophages. Compared to other in vitro antioxidant assays, this method provides partial information about the uptake and metabolism of the compounds, because, in this assay, they must first enter the cell to exert antioxidant activity.[31] […] Derivatization of quercetin at C-8 with 4-fluoroaniline (5) increased the antioxidant activity of quercetin by 1.7-fold. […] The concentration of these derivatives required to halve the cellular radicals decreased 1.5-fold compared to luteolin.
Cellular antioxidant capacity was evaluated as previously described.[31],[39] Briefly, 100 μL of RAW 264.7 cells with a density corresponding to 1 × 10^6 cells/mL were split into 96-well plates. After 24 h, cells were washed with PBS, and DMEM supplemented with DCFH-DA (0.0125 mg/mL) was added to each well together with the tested samples in the concentration range of 1.5–200 μM. After 1 h incubation in a CO2 incubator, the medium was replaced with AAPH solution (0.16 mg/mL in PBS), and fluorescence was immediately recorded (ex./em. 485/540 nm) for 2 h in 5 min intervals.

Assay [2] concerns S. aureus CCM 4223. Put plainly: Antibacterial activity, antibiotic-sensitive strain. Conditions: Staphylococcus aureus, CCM4223, three repetitions ± SEM. The assay is classed as cell-based.
Assay [3] has as its system S. aureus MRSA 9. The experiment in a line: Antibacterial activity, multidrug-resistant strain. Format: cell-based. Conditions: for IC50: Staphylococcus aureus, MRSA, multidrug-resistant strain, three repetitions ± SEM; for effect of the antibiotic alone on the multidrug-resistant clinical strain: breakpoint concentrations (1 mg/L). How it is done: (§1) To evaluate the ability to modulate bacterial resistance, the tested flavonoids themselves cannot exert antimicrobial activity; therefore, the nontoxic concentration was used, as indicated in Table S5. Clinically relevant antibiotics were selected at breakpoint concentrations for susceptibility testing according to the European Committee on Antimicrobial Susceptibility Testing (EUCAST, version 11.0). […] Flavonoids and their derivatives (from 1 μM to the highest nontoxic concentration) were used in combination with the breakpoint concentration of the antibiotics. After coincubation, the minimum inhibitory concentration (MIC) of flavonoids inhibiting the visible growth of bacteria was determined (Table 2).
(§2) Sensitization of multidrug-resistant clinical bacterial strains was performed according to ref[15]. Antibiotic cutoff concentration was chosen according to the European Committee on Antimicrobial Susceptibility Testing (EUCAST, Clinical breakpoints–bacteria, ver. 11.0). The 200 μM concentration of the derivatives was chosen as the highest test concentration. The absorbance detected at 600 nm was then used to estimate the number of viable cells after 24 h of incubation at 37 °C and 120 rpm.
(§3) Experiments were performed with the respective number of replicates indicated in each figure/table. MIC was determined as IC70. Both IC70 and IC50 values were calculated using the following nonlinear regression in the software GraphPad Prism: […]

For assay [4], the system named is immortalized human keratinocytes (HaCaT). Put plainly: Cytotoxicity (resazurin assay), keratinocytes. The assay is classed as cell-based. Conditions: 72 h incubation, resazurin, average of three repetitions ± SEM, read-out: HaCaT IC50 (concentration that halved the viability). The method, then: (§4) The cytotoxicity of the prepared derivatives was evaluated by their ability to decrease the viability of immortalized human keratinocytes (HaCaT) and human dermal fibroblasts (HDF).
(§5) 100 μL of cell suspension containing 10^5 cells/mL was pipetted into a 96-well plate. After 24 h incubation, the tested compounds were added in the concentration range 12.5–200 μM. After 72 h incubation, the cell viability was tested by standard resazurin assay.[41] Briefly, the cells were washed with PBS and incubated with 100 μL of resazurin solution (0.025 mg/mL) for 2 h. The fluorescence was measured at a wavelength of 560 nm excitation/590 nm emission.

The subject of assay [5] is human dermal fibroblasts (HDF). The experiment in a line: Cytotoxicity (resazurin assay), fibroblasts. Format: cell-based. Conditions: 72 h incubation, resazurin, average of three repetitions ± SEM, read-out: HDF IC50 (concentration that halved the viability). The method, then:
as §4, §5
In general terms: Resazurin is reduced to fluorescent resorufin, in cell work by metabolically active cells.

Assay [6] concerns Staphylococcus aureus MRSA 9. Put plainly: Modulation of antibiotic-resistant phenotype (flavonoid plus breakpoint concentration of antibiotic). Format: cell-based. Conditions: for minimum inhibitory concentration (MIC) in the presence of erythromycin: erythromycin at breakpoint concentration 1 mg/L; for minimum inhibitory concentration (MIC) in the presence of erythromycin / minimum inhibitory concentration (MIC) in the presence of gentamicin: MIC determined as IC70, three repetitions ± SEM; for minimum inhibitory concentration (MIC) in the presence of gentamicin: gentamicin at breakpoint concentration 1 mg/L. How it is done:
as §1, §2, §3

In assay [7] the test system is interleukin 6 (IL-6) production by RAW 264.7 stimulated by LPS. The experiment in a line: Anti-inflammatory activity: IL-6 production by LPS-stimulated macrophages. Format: cell-based, Murine. Conditions: Mus musculus, RAW264.7; LPS-stimulated RAW 264.7; average of four repetitions ± SEM. The method, then:
(§6) The anti-inflammatory activity of flavonoids was evaluated as their ability to decrease the production of signaling molecules that mediate inflammation, such as nitric oxide (NO), tumor necrosis factor (TNF-α), and interleukin 6 (IL-6), in LPS-stimulated macrophages.
(§7) The anti-inflammatory activity of the tested flavonoids was determined as the ability to reduce the production of nitric oxide (NO), tumor necrosis factor (TNF-α), and interleukin 6 (IL-6) by RAW 264.7 stimulated by LPS, as previously described.[39],[40] Briefly, 1 × 10^6 cells/mL was seeded into the 96-well plate (100 μL/well). After 48 h, LPS (100 ng/mL) and the samples (3–100 μM) were added to the MEM medium. After 24 h, the medium was mixed with Griess reagent (0.04 g/mL) at a 1:1 ratio. The absorbance was measured after 15 min at 540 nm. Cell viability was determined using the resazurin assay.
(§8) To determine TNF-α levels, cells were precultivated with the tested compounds for 24 h. After 2 h of incubation with LPS, the medium was diluted 1:10 with ELISA diluent. To determine the level of IL-6, cells were cultivated for 6 h with LPS and the tested compounds. Cytokine production was determined using an uncoated ELISA performed according to the manufacturer’s instructions.

Assay [8] relates to tumor necrosis factor (TNF-α) production by RAW 264.7 stimulated by LPS. The experiment in a line: Anti-inflammatory activity: TNF-α production by LPS-stimulated macrophages. The assay is classed as cell-based, Murine. Conditions: Mus musculus, RAW264.7; LPS-stimulated RAW 264.7; average of four repetitions ± SEM; read-out: TNFα production IC50. How it is done:
as §6, §7, §8

Assay [9] deals with nitric oxide (NO) production by RAW 264.7 stimulated by LPS. The experiment in a line: Anti-inflammatory activity: NO production by LPS-stimulated macrophages. Conditions: Mus musculus, RAW264.7; LPS-stimulated RAW 264.7; average of four repetitions ± SEM. Format: cell-based, Murine. The method, then:
as §6, §7

In assay [10] the test system is MRSA 1584. Put plainly: Mode of antimicrobial action with gentamicin, aac(6')/aph(2')-positive strain. Format: cell-based, Staphylococcus aureus.
Description: (§9) Among the mechanisms of resistance to gentamicin previously described in S. aureus, the presence of enzymes that alter the structure of aminoglycosides is crucial. These enzymes can transfer nucleotides, phosphates, or acetyls to various −OH or −NH2 groups of gentamicin, preventing its subsequent interaction with the cellular target, i.e., the 30S ribosomal subunit. The bifunctional aminoglycoside-modifying enzyme with acetylation and phosphotransferase activities encoded by the gene aac(6’)/aph(2’), 4′,4″ adenyltransferase encoded by the aadD gene, and aminoglycoside O-phosphotransferase encoded by the gene aph(3′) are the most important.[37] […] For this reason, further testing continued using strains MRSA 3596 and MRSA 1584, which inactivate gentamicin only by a single mechanism (aadD and aac(6’)-aph(2’’), respectively).
as §2, §3

The test system of assay [11] is MRSA 3596. Put plainly: Mode of antimicrobial action with erythromycin or gentamicin, ermA- and aadD-positive strain. The assay is classed as cell-based, S. aureus. Conditions: MRSA 3596 (aadD).
Description: Erythromycin is a macrolide antibiotic that inhibits proteosynthesis by binding to the 50S subunit of the ribosome. In Staphylococcus species, resistance to erythromycin is associated with the presence of methyltransferases (encoded by erm genes) that alter the ribosomal target site. Another typical mechanism of resistance to erythromycin is the presence of an ATP-dependent efflux pump encoded by the msr(A) gene or a major facilitator superfamily (MFS) pump encoded by the lmrS gene. Both efflux pumps reduce the concentration of erythromycin in the cell below the therapeutic dose by transporting it across the membrane to the extracellular space. Another erythromycin resistance gene is the mph(C) gene, the product of which is a phosphotransferase that alters the structure of macrolide antibiotics. To elucidate the mechanism of erythromycin resistance modulation in S. aureus, further tests were performed with the strains MRSA 331 and MRSA 3596, which inactivate erythromycin via a single mechanism (ermC and ermA, respectively). […] Therefore, if the activity was not strain-specific, it would be necessary to consider the effect of the derivatives on this pump (Table 3).
as §9, §2, §3

In brackets after ≈: the same amount, converted by molar mass. Like-named read-outs stand apart in the source and are kept apart here.

`COc1ccc(Nc2c(O)cc(O)c3c(=O)c(O)c(-c4ccc(O)c(O)c4)oc23)cc1` [compound 6, 2-(3,4-Dihydroxyphenyl)-8-(4-methoxyanilino)-3,5,7-trihydroxy-4H–1-benzopyran-4-one]: the IC50 was 7.5 ± 0.7 µM in [1]; 44 ± 0.1 µM in [2]; 138 ± 1.2 µM in [3]; 45.2 ± 3.5 µM in assay [4] (Homo sapiens, HaCaT, 72 h); 79.9 ± 1.5 µM in assay [5] (Homo sapiens, Fibroblast, 72 h); 32.3 ± 2.3 µM in [7]. The results for the IC50 in assay [8] and in assay [9] were > 50 µM and 52.3 ± 2.3 µM, respectively. The inhibition at 200 µM in assay [6] (Staphylococcus aureus, MRSA, with gentamicin 1 mg/L, maximum concentration used (200 μM), read-out: maximum concentration used inhibited bacterial growth to) was found to be 50.7%. The “minimum inhibitory concentration (MIC) in the presence of erythromycin” value in assay [6] was >200 µM. Besides, the “minimum inhibitory concentration (MIC) in the presence of gentamicin” value in assay [6] is listed as >200 ^note 2 μM.
As to `CC[C@H]1OC(=O)[C@H](C)[C@@H](O[C@H]2C[C@@](C)(OC)[C@@H](O)[C@H](C)O2)[C@H](C)[C@@H](O[C@@H]2O[C@H](C)C[C@H](N(C)C)[C@H]2O)[C@](C)(O)C[C@@H](C)C(=O)[C@H](C)[C@@H](O)[C@]1(C)O` [Erythromycin, reference compound], the “effect of the antibiotic alone on the multidrug-resistant clinical strain” value in assay [3] is “did not affect”.
Consider `CNC(C)C1CCC(N)C(OC2C(N)CC(N)C(OC3OCC(C)(O)C(NC)C3O)C2O)O1` (stereo not shown) [gentamicin, reference compound], for which the “effect of the antibiotic alone on the multidrug-resistant clinical strain” value in assay [3] is “did not affect”.
As for `O=c1c(O)c(-c2ccc(O)c(O)c2)oc2c(Nc3ccccc3)c(O)cc(O)c12` [compound 7, 2-(3,4-Dihydroxyphenyl)-8-(anilino)-3,5,7-trihydroxy-4H–1-benzopyran-4-one], the IC50 was determined as 5.5 ± 0.4 µM in assay [1]; 32.7 ± 0.7 µM in assay [2]; 70 ± 2 µM in assay [3]; 102 ± 1.5 µM in assay [4] (Homo sapiens, HaCaT, 72 h); 115 ± 1.2 µM in assay [5] (Homo sapiens, Fibroblast, 72 h); 12.9 ± 0.2 µM in assay [7]. Besides, the IC50 in assay [8] is > 100 µM; in [9], 34.4 ± 0.2 µM. The “effect (mode of action with gentamicin)” value in [10] (MRSA 1584) is reported as “indifferent (> 1 to < 2 indicates indifference)”. Further, the “MIC, Gentamicin [1 mg/L] yes” value in assay [10] (MRSA 1584 (aac(6')/aph(2')), with gentamicin 1 mg/L) was 31.9 ± 2.5 µM (≈ 12.5 µg/mL); in assay [11] (with gentamicin 1 mg/L), > 200 µM. For the same compound, in assay [10] (MRSA 1584, with gentamicin), the “FIC (Fractional Inhibitory Concentration Index)” value was determined as 1.07 ± 0.13. The MIC is 29.9 ± 1.2 µM (≈ 11.8 µg/mL) in [10] (Staphylococcus aureus, 24 h, read-out: MIC, Gentamicin [1 mg/L] no, MRSA 1584, without gentamicin) and > 200 µM in assay [11] (Staphylococcus aureus, 24 h, read-out: MIC, Gentamicin [1 mg/L] no, without gentamicin, Table S6). Also, the “minimum inhibitory concentration (MIC) in the presence of erythromycin” value in [6] is >200 µM. Further, the “minimum inhibitory concentration (MIC) in the presence of gentamicin” value in assay [6] was found to be 43.8 ± 1.6 µM.
As to `COc1cc(Nc2c(O)cc(O)c3c(=O)c(O)c(-c4ccc(O)c(O)c4)oc23)cc(OC)c1` [compound 9, 2-(3,4-Dihydroxyphenyl)-8-(3,5-dimethoxyanilino)-3,5,7-trihydroxy-4H–1-benzopyran-4-one], the IC50 in assay [1] is 5.7 ± 1 µM; in assay [2], > 200 µM; in assay [3] it was > 200 µM; in assay [4] (Homo sapiens, HaCaT, 72 h), 56.9 ± 1.9 µM; in [5] (Homo sapiens, Fibroblast, 72 h), 76 ± 3 µM; in assay [7], > 50 µM. The IC50 was > 50 µM in [8] and 26.6 ± 0.4 µM in assay [9]. Besides, the “minimum inhibitory concentration (MIC) in the presence of erythromycin” value in assay [6] was >200 µM. Further, the “minimum inhibitory concentration (MIC) in the presence of gentamicin” value in assay [6] was >200 µM.
For `COc1cccc2c1C(=O)c1c(O)c3c(c(O)c1C2=O)C[C@@](O)(C(=O)CO)C[C@@H]3O[C@H]1C[C@H](N)[C@H](O)[C@H](C)O1` [Doxorubicin, reference compound], the IC50 in [4] (listed as doxorubicin) is < 1 µM; in assay [4] it was 0.42 ± 0.03 µM; in assay [5] (listed as doxorubicin), < 1 µM; in [5], 0.19 ± 0.01 µM.
